Legend:
[1] = target: T1, Delta(14)-sterol reductase (Zea mays, UniProt B4FS76); test: Inhibition of Zea mays (maize) microsomal delta 8,14-steroid 14-reductase using delta 8,14-cholestadienol as substrate after 90 min by GC analysis
T1 sequence (B4FS76 whole entry): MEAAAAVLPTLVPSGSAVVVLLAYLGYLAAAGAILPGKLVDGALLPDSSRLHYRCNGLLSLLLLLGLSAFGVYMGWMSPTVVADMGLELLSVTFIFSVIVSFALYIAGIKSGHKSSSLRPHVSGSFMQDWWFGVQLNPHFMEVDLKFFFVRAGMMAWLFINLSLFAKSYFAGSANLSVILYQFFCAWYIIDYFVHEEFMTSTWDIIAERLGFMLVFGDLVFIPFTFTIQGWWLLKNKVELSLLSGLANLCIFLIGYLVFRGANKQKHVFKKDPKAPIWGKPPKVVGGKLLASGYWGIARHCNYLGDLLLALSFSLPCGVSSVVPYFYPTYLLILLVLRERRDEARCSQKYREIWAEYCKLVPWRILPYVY

[2] = target: T2, Cycloeucalenol cycloisomerase (Zea mays, UniProt B6TK44); test: Inhibition of Zea mays (maize) cycloeucalenol-obtusifolial isomerase
T2 sequence (B6TK44 whole entry): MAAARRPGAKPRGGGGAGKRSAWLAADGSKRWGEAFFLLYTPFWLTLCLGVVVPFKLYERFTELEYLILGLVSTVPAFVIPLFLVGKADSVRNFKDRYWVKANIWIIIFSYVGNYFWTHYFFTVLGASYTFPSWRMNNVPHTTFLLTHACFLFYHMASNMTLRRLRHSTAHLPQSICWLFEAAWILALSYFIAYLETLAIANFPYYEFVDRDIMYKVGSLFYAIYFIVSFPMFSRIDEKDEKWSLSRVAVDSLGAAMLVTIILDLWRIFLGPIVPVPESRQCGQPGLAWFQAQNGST

Sterol-8,7-isomerase = target: T3, Sterol-8,7-isomerase (Zea mays, UniProt Q2TU57); test: Inhibition of Zea mays (maize) delta8,delta7-sterol isomerase
T3 sequence (Q2TU57 whole entry): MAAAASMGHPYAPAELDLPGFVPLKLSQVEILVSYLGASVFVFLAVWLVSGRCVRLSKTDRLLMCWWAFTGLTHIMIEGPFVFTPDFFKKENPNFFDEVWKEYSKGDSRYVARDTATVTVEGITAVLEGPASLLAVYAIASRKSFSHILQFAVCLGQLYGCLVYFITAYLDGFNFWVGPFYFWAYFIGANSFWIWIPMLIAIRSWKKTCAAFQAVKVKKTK

[3] = target: T4, Delta(14)-sterol reductase (Zea mays) (UniProt B4FS76); test: Ratio of compound I50 to delta8,14-cholestadien-3beta-ol Km for Zea mays (maize) delta 8,14-steroid 14-reductase
T4 sequence (whole entry): T1 sequence (B4FS76 whole entry)

[4] = target: T5, Cycloeucalenol cycloisomerase (Zea mays) (UniProt B6TK44); test: Inhibition of Zea mays (maize) cycloeucalenol-obtusifolial isomerase at 200 uM
T5 sequence (whole entry): T2 sequence (B6TK44 whole entry)

[5] = target: T4, Delta(14)-sterol reductase (Zea mays); test: Inhibition of Zea mays (maize) microsomal delta 8,14-steroid 14-reductase using delta 8,14-cholestadienol as substrate at 200 uM after 90 min by GC analysis
[6] = target: T6, Sterol-8,7-isomerase (Zea mays) (UniProt Q2TU57); test: Inhibition of Zea mays (maize) delta8,delta7-sterol isomerase at 200 uM
T6 sequence (whole entry): T3 sequence (Q2TU57 whole entry)

Structure (SMILES)	IC50 [1] [nM]	IC50 [2] [nM]	IC50 (Sterol-8,7-isomerase) [nM]	Ratio [3]	inhibition [4] [%]	inhibition [5] [%]	inhibition [6] [%]
CC(Cc1ccc(C(C)(C)C)cc1)CN1CCCCC1 (stereo not drawn) [FENPROPIDIN]	3000	200	80	–	–	–	–
CC(C)CCCC(C)CCCC(C)N1CC[C@H]2[C@H](C)[C@@H](O)CC[C@]2(C)C1 (stereo partly drawn)	300	25	200	–	–	–	–
C=C(CC[C@@H](C)[C@H]1CCN=C2C3=C(CC[C@@]21C)[C@@]1(C)CC[C@H](O)C[C@@H]1CC3)C(C)C	30	–	800	0.00015	< 5	–	–
CCCCCCCCCCCCCN1CC(C)OC(C)C1 (stereo not drawn) [TRIDEMORPH]	25000	400	400	–	–	–	–
CC(Cc1ccc(C(C)(C)C)cc1)CN1CC[C@H]2[C@H](C)[C@@H](O)CC[C@]2(C)C1 (stereo partly drawn)	70	100	–	6.5e-05	–	–	–
CC(Cc1ccc(C(C)(C)C)cc1)CN1C[C@@H](C)O[C@@H](C)C1 (stereo partly drawn) [FENPROPIMORPH]	800	400	400	–	–	–	–
C[C@@H]1[C@@H](O)CC[C@]2(C)CN(Cc3ccccc3)CC[C@@H]12	80	100	130	–	–	–	–
C[C@@H]1[C@@H](O)CC[C@]2(C)CCCC[C@@H]12	–	–	–	–	< 5	< 5	< 5
CCCCCCCCCCCCN1CC[C@H]2[C@H](C)[C@@H](O)CC[C@]2(C)C1	90	100	–	–	–	–	–
Clc1ccccc1CNC[C@H]1CC[C@H](CNCc2ccccc2Cl)CC1	40000	–	500	–	< 5	–	–
C[C@@H]1[C@@H](O)CC[C@]2(C)CNCC[C@@H]12	4500	17500	10000	–	–	–	–

Source: ChEMBL document CHEMBL3044637, “Microsomal delta 8,14-sterol delta 14-reductase in higher plants. Characterization and inhibition by analogues of a presumptive carbocationic intermediate of the reduction reaction” (Eur J Biochem, 1989)
